Results on 19 molecules are retold here after ChEMBL document CHEMBL1146367, “Substituted thiophene-anthranilamides as potent inhibitors of human factor Xa” (Bioorg Med Chem, 2007).

Test [1] is described as follows: Binding affinity to bovine trypsin after 10 mins. Further details: species or system Bos taurus. The conditions noted are these: read-out: Ki app.
Test [2] concerns the target Prothrombin (Homo sapiens, UniProt P00734). Put plainly: Binding affinity to human thrombin after 10 mins. The conditions noted are these: read-out: Ki app.
Test [3] addresses Coagulation factor X (Homo sapiens, UniProt P00742). Put plainly: Binding affinity to human factor 10a after 10 mins. The conditions noted are these: read-out: Ki app.
The test system of test [4] is Plasma. Put plainly: Anticoagulant activity in human plasma assessed as concentration required to double prothrombin time. It counts as functional, cell-free.

Molecules are shown by their SMILES.

Coagulation factor X, sequence (P00742 41-179 limits assumed): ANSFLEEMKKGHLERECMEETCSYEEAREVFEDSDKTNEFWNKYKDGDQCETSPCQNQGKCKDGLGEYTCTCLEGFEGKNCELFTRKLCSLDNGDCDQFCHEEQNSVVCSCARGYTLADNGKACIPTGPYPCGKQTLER
Coagulation factor X, sequence (P00742 235-488 limits assumed): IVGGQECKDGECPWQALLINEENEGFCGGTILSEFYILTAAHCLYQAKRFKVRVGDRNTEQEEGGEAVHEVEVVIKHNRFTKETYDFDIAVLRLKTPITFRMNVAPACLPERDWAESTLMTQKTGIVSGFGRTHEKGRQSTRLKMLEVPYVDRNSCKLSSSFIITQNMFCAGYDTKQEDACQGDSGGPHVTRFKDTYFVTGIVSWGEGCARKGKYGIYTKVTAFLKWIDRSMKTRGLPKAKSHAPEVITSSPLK

On to `CN(C)Cc1ccc2c(Cl)c(C(=O)Nc3ccc(Cl)cc3C(=O)Nc3ccc(Cl)cc3)sc2c1`, for which the Ki in test [1] was more than 5000 nM; in test [2], more than 5000 nM; in test [3], 14 nM.

As for `Cc1sc(C(=O)Nc2ccc(Cl)cc2C(=O)Nc2ccc(Cl)cc2)c(Cl)c1CN1CCN(C)CC1`, the Ki was more than 5000 nM in test [1], 4400 nM in test [2] and 12 nM in test [3]. Also, in test [4], the Cp came out at 25 µM.

Consider `Cc1ccc2c(Cl)c(C(=O)Nc3ccc(Cl)cc3C(=O)Nc3ccc(Cl)cc3)sc2c1`, for which the results for the Ki in test [1], in test [2] and in test [3] were more than 5000 nM, more than 5000 nM and 0.95 nM, respectively.

In the case of `CN1CCN(Cc2c(C(=O)Nc3ccc(Cl)cc3C(=O)Nc3ccc(Cl)cc3)sc3ccccc23)CC1`, the Ki in test [1] was more than 5000 nM; in test [2], 1000 nM; in test [3], 20 nM.

As to `CN(CCN1CCCC1)Cc1csc(C(=O)Nc2ccc(Cl)cc2C(=O)Nc2ccc(Cl)cc2)c1Cl`, the Ki in test [1] was more than 5000 nM; in test [2], 160 nM; in test [3] it was 0.3 nM. Also, the Cp in test [4] came out at 5 µM.

In the case of `CN(C)Cc1c(C(=O)Nc2ccc(Cl)cc2C(=O)Nc2ccc(Cl)cc2)sc2ccccc12`, the Ki was more than 5000 nM in test [1], 1200 nM in test [2] and 9 nM in test [3].

For the molecule `CS(=O)(=O)Cc1csc(C(=O)Nc2ccc(Cl)cc2C(=O)Nc2ccc(Cl)cc2)c1Cl`, the values for the Ki in test [1], in test [2] and in test [3] were more than 5000 nM, more than 5000 nM and 2.1 nM, respectively. Also, the Cp in test [4] came to 14 µM.

In the case of `O=C(Nc1ccc(Cl)cc1)c1cc(Cl)ccc1NC(=O)c1scc(Cn2cnnn2)c1Cl`, the Ki in test [1] was more than 5000 nM; in test [2], more than 5000 nM; in test [3], 1.7 nM. The Cp in test [4] worked out at 29 µM.

With `CN1CCN(Cc2ccc3c(Cl)c(C(=O)Nc4ccc(Cl)cc4C(=O)Nc4ccc(Cl)cc4)sc3c2)CC1`, the figures for the Ki in test [1], in test [2] and in test [3] were more than 5000 nM, more than 5000 nM and 21 nM, respectively.

Regarding `O=C(Nc1ccc(Cl)cc1)c1cc(Cl)ccc1NC(=O)c1scc(Cn2ccnn2)c1Cl`, the Ki in test [1] is more than 5000 nM; in test [2] it was 2700 nM; in test [3] it was 1.4 nM. In addition, the Cp in test [4] turned out to be 15 µM.

With `CC(=O)N1CCN(Cc2csc(C(=O)Nc3ccc(Cl)cc3C(=O)Nc3ccc(Cl)cc3)c2Cl)CC1`, the figures for the Ki in test [1], in test [2] and in test [3] were more than 5000 nM, 4400 nM and 6 nM, respectively.

As for `CN(Cc1csc(C(=O)Nc2ccc(Cl)cc2C(=O)Nc2ccc(Cl)cc2)c1Cl)CC(O)CO` (configuration not stated), the figures for the Ki in test [1], in test [2] and in test [3] were more than 5000 nM, 990 nM and 1.4 nM, respectively. For the same molecule, in test [4], the Cp was 11 µM.

Take `CC1(C)OCC(COCc2csc(C(=O)Nc3ccc(Cl)cc3C(=O)Nc3ccc(Cl)cc3)c2Cl)O1` (configuration not stated): the Ki in test [1] was more than 5000 nM; in test [2], more than 5000 nM; in test [3] it was 20 nM.

On to `O=C(Nc1ccc(Cl)cc1)c1cc(Cl)ccc1NC(=O)c1sc2ccccc2c1Cl`, for which the Ki in test [1] and in test [2] was more than 5000 nM throughout.

As to `Cc1cccc2sc(C(=O)Nc3ccc(Cl)cc3C(=O)Nc3ccc(Cl)cc3)c(Cl)c12`, the Ki in test [1], in test [2] and in test [3] was more than 5000 nM throughout.

As to `Cc1c(C(=O)Nc2ccc(Cl)cc2C(=O)Nc2ccc(Cl)cc2)sc2ccccc12`, the Ki is more than 5000 nM in test [1], more than 5000 nM in test [2] and 0.82 nM in test [3].

Take `Cc1cc(Cl)c(C(=O)Nc2ccc(Cl)cc2C(=O)Nc2ccc(Cl)cc2)s1`: the Ki in test [1] is more than 5000 nM; in test [2], more than 5000 nM; in test [3], 24 nM.

For the molecule `O=C(O)CN1CCN(Cc2ccc3c(Cl)c(C(=O)Nc4ccc(Cl)cc4C(=O)Nc4ccc(Cl)cc4)sc3c2)CC1`, the Ki in test [1] was more than 5000 nM; in test [2] it was more than 5000 nM; in test [3], 9.5 nM.

Take `Cc1csc(C(=O)Nc2ccc(Cl)cc2C(=O)Nc2ccc(Cl)cc2)c1Cl`: the Ki in test [1] is more than 5000 nM; in test [2], more than 5000 nM; in test [3], 18 nM.
